In patent US9193744B2, “Heterocyclic nuclear hormone receptor modulators” (AbbVie Inc., priority 2012, dated 2015):
Where two headings read alike, the source gives them in different places.

Tests used:
[1] = system: IL-6; assay: A549 Cell Assay to Measure Inflammation Markers (inhibition of IL-1β-induced IL-6); assay type: cell-based
Protocol: A549 Cell Assay to Measure Inflammation Markers
A549 cells were seeded (3E4 cells/well) in 96-well assay plates in culture medium (100 μL/well., F-12 K base media, supplemented with 10% FBS and 100 μ/mL-100 μg/mL Pen-Strep.) After overnight culture in an incubator set to 37° C., 4.9% CO2, and 90% humidity, media was removed from adherent cells by aspiration and replaced with 100 μL/well Assay Medium (F-12 K base media supplemented with 5% charcoal stripped calf sera and 100 U/mL-100 μg/mL Pen-Strep.) Compounds were prepared in DMSO and serial diluted (1:3, 1:4, or 1:5) with DMSO in Dilution Plate(s) to give 10 dilution points for each compound tested. Further dilution (1:250) of compound was made into assay medium and 50 μL/well diluted drug or DMSO/media control was applied to cells. After a 1 h pre-incubation in a temperature, CO2, and humidity controlled incubator, set to 37° C., 50 μL/well of 4 ng/mL IL-1β diluted in assay media, was applied to cultures. Assay plates, with a final volume of 200 μL/well and final concentrations of 0.1% DMSO and 1 ng/mL IL-1β were returned to incubator for a four h incubation period. Next, plates were spun at 183 g (1000 rpm in Beckman/Coulter Allegra 6KR centrifuge) for 10 min. Cell-free supernatant (150 μL/well) was collected and IL-6 was measured by MSD kit, following protocol of manufacturer, and using MSD SECTOR Imager 6000 instrument. Potency of compounds to inhibit IL-6 was determined using the percent reduction of measured IL-6 in wells with compound compared to control wells without drug, and relative to (100% inhibition) positive control compound of 1 μM prednisolone. Results were represented as IC50 and Emax values. To verify that viable cell numbers were similar across plate(s), and not confounding compound IC50 data interpretation, the remaining 50 μL/well of cells and media (after removal of supernatant) were used to run Cell Titer-Glo Assay per directions of manufacturer.

[2] = molecular target: T1, Glucocorticoid Receptor (GR) (Homo sapiens, UniProt P04150); assay: GR Fluorescence Polarization Assay (PolarScreen Glucocorticoid Receptor Competitor Assay, Red); settings: fluorescence polarization binding ranges
T1 construct: purchased Invitrogen P2893
T1 sequence (P04150 1-777): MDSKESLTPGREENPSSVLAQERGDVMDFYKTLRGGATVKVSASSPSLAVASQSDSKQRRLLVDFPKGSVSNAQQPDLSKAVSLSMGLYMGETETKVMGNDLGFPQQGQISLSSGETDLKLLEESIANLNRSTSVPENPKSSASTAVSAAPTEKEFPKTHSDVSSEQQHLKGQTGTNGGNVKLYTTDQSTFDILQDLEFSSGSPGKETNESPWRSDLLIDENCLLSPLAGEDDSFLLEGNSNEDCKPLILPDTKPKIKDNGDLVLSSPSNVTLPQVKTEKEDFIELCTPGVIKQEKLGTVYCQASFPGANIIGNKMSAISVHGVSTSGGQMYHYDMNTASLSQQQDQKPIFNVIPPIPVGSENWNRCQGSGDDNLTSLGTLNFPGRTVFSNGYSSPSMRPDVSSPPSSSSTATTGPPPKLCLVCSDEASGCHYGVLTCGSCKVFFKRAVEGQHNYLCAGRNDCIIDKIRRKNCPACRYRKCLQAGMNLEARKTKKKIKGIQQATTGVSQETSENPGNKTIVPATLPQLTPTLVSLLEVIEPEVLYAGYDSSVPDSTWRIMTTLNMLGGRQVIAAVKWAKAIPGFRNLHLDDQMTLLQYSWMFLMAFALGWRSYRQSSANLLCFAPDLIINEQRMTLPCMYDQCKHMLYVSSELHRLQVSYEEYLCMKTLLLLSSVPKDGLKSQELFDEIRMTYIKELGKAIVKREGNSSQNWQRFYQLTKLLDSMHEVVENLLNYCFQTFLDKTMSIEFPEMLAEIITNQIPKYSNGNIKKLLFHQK
Protocol: Fluorescence polarization assays were carried out using the PolarScreen™ Glucocorticoid Receptor Competitor Assay, Red from Invitrogen (P2893). The assay buffer was prepared according to the manufacturer's protocol and used to dilute the fluorescent glucocorticoid and GR. Compounds were prepared and serial diluted 1:4 in DMSO. Compound, fluorescent glucocorticoid and GR were added in a final volume of 20 μL and incubated overnight at 4° C. Fluorescent polarization was measured on the PerkinElmer Envision®. Fluorescence polarization binding ranges measured using GR Fluorescence Polarization Assay: […]

[3] = Homo sapiens, A549 cells, read-out: A549 cell assay
[4] = A549 cells, read-out: A549 cell assay

Compound	IC50 [1, 3]	IC50 [2]	IC50 [1, 4]	IC50 ([1]; Homo sapiens, A549, read-out: A549 cell assay)
CC[C@]12CC[C@@](O)(C(F)(F)F)[C@H](O)[C@H]1CCCc1cc3c(cnn3-c3ccc(F)cc3)cc12 (single isomer, unassigned) [Example 97]	< 0.1 µM	< 0.1 µM	–	–
CC[C@@]1(O)CC[C@@]2(Cc3ccccn3)c3cc4cnn(-c5ccc(F)cc5)c4cc3C(=O)CC[C@H]2C1 [Example 94, (3R,4aS,12bS)-3-Ethyl-9-(4-fluorophenyl)-3-hydroxy-12b-(pyridin-2-ylmethyl)-1,2,3,4,4a,5,6,12b-octahydrobenzo[6,7]cyclohepta[1,2-f]indazol-7(9H)-one]	< 0.1 µM	< 0.1 µM	–	–
N#C[C@]12CC[C@@](O)(C(F)(F)F)C[C@@H]1CCCc1cc3c(cnn3-c3ccc(F)cc3)cc12 (single isomer, unassigned) [Example 73]	–	0.1 to 1 µM	–	> 10 µM
CC[C@@]12CC[C@@](C)(O)C[C@@H]1CCCc1cc3c(cnn3-c3ccc(F)cc3)cc12 [Example 54]	–	< 0.1 µM	< 0.1 µM	–
CC[C@@]12CC[C@](O)(COC)C[C@@H]1CCCc1cc3c(cnn3-c3ccnc(C)c3)cc12 (racemic) [Example 45]	–	< 0.1 µM	< 0.1 µM	–
CCC[C@@]1(O)CC[C@]2(CC)c3cc4cnn(-c5ccc(F)cc5)c4cc3CCC[C@H]2C1 (single isomer, unassigned) [Example 6]	0.1 to 1 µM	0.1 to 1 µM	–	–
CC#C[C@@]1(O)CC[C@@]2(CC)c3cc4cnn(-c5ccc(F)cc5)c4cc3CCC[C@@H]2C1 [Example 111]	–	< 0.1 µM	< 0.1 µM	–
C#C[C@]1(O)CC[C@]2(CC)c3cc4cnn(-c5ccc(F)cc5)c4cc3CCC[C@H]2C1 (single isomer, unassigned) [Example 110]	0.1 to 1 µM	< 0.1 µM	–	–
(2S,3R,4aS,12bS)-12b-ethyl-9-(4-fluorophenyl)-3-(trifluoromethyl)-1,2,3,4,4a,5,6,7,9,12b-decahydrobenzo[6,7]cyclohepta[1,2-f]indazole-2,3-diol [Example 120]	–	< 0.1 µM	0.1 to 1 µM	–
CC[C@]12CC[C@](O)(C(F)(F)F)C[C@H]1CCCc1cc3c(cnn3-c3ccc(F)cc3)cc12 (single isomer, unassigned) [Example 2]	< 0.1 µM	< 0.1 µM	–	–
C[C@]1(O)CC[C@]2(Cc3ncccn3)c3cc4cnn(-c5ccc(F)cc5)c4cc3CCC[C@@H]2C1 [Example 56]	–	0.1 to 1 µM	> 10 µM	–
CC[C@@]12CC[C@](O)(COC)C[C@@H]1CCCc1cc3c(cnn3-c3cccnc3)cc12 [Example 44]	–	< 0.1 µM	< 0.1 µM	–
N#CC[C@]12CC[C@@](O)(C(F)(F)F)C[C@@H]1CCCc1cc3c(cnn3-c3ccc(F)cc3)cc12 (single isomer, unassigned) [Example 82]	0.1 to 1 µM	< 0.1 µM	–	–
CC[C@@]12CC[C@](O)(C(F)(F)F)C[C@H]1CC[C@H](O)c1cc3c(cnn3-c3ccc(F)cc3)cc12 (single isomer, unassigned) [Example 104]	< 0.1 µM	< 0.1 µM	–	–
CC[C@]12CC[C@@](O)(COC)C[C@H]1CCCc1cc3c(cnn3-c3ccc(F)cc3)cc12 [Example 34]	–	< 0.1 µM	> 10 µM	–
CC(=O)NC[C@]12CC[C@@](O)(C(F)(F)F)C[C@@H]1CCCc1cc3c(cnn3-c3ccc(F)cc3)cc12 (single isomer, unassigned) [Example 83]	0.1 to 1 µM	0.1 to 1 µM	–	–
N#CC[C@]1(O)CC[C@]2(Cc3ncccn3)c3cc4cnn(-c5ccc(F)cc5)c4cc3CCC[C@@H]2C1 [Example 63]	–	< 0.1 µM	< 0.1 µM	–

Continued, in another order:

IC50 [1, 3]	IC50 [2]	IC50 [1, 4]	Compound	IC50 ([1]; Homo sapiens, A549, read-out: A549 cell assay)
1 to 10 µM	0.1 to 1 µM	–	CC[C@]12CC[C@@](O)(C(F)(F)F)C[C@@H]1CCCc1cc3c(cnn3-c3ccc(S(C)(=O)=O)cc3)cc12 [Example 169, (3S,4aS,12bS)-12b-ethyl-9-(4-(methylsulfonyl)phenyl)-3-(trifluoromethyl)-1,2,3,4,4a,5,6,7,9,12b-decahydrobenzo[6,7]cyclohepta[1,2-f]indazol-3-ol]	–
< 0.1 µM	< 0.1 µM	–	C[C@@]1(O)CC[C@@]2(Cc3ccccn3)c3cc4cnn(-c5ccc(F)cc5)c4nc3CCC[C@H]2C1 (racemic) [Example 148, rac-(3R,4aS,12bS)-9-(4-Fluorophenyl)-3-methyl-12b-(pyridin-2-ylmethyl)-1,2,3,4,4a,5,6,7,9,12b-decahydrobenzo[3,4]cyclohepta[1,2-b]pyrazolo[4,3-e]pyridin-3-ol]	–
< 0.1 µM	< 0.1 µM	–	COC[C@@]1(O)CC[C@@]2(Cc3ccccn3)c3cn4cnc(-c5ccc(F)cc5)c4cc3CCC[C@H]2C1 (racemic) [Example 167, rac-(3R,4aS,13bS)-9-(4-Fluorophenyl)-3-(methoxymethyl)-13b-(pyridin-2-ylmethyl)-2,3,4,4a,5,6,7,13b-octahydro-1H-benzo[3,4]cyclohepta[1,2-d]imidazo[1,5-a]pyridin-3-ol]	–
> 10 µM	0.1 to 1 µM	–	O[C@@]1(C(F)(F)F)CC[C@@]2(Cc3ccccn3)c3cc4cnn(-c5ccc(F)cc5)c4nc3CCC[C@H]2C1 (racemic) [Example 155, rac-(3R,4aR,12bR)-9-(4-Fluorophenyl)-12b-(pyridin-2-ylmethyl)-3-(trifluoromethyl)-1,2,3,4,4a,5,6,7,9,12b-decahydrobenzo[3,4]cyclohepta[1,2-b]pyrazolo[4,3-e]pyridin-3-ol]	–
< 0.1 µM	< 0.1 µM	–	C[C@@]1(O)CC[C@@]2(Cc3ccccn3)c3cc4cnn(-c5ccc(F)cc5)c4nc3CCC[C@H]2C1 (single isomer, unassigned) [Example 149]	–
–	< 0.1 µM	< 0.1 µM	N#CC[C@@]1(O)CC[C@@]2(Cc3ncccn3)c3cc4cnn(-c5ccc(F)cc5)c4nc3CCC[C@H]2C1 [Example 165]	–
< 0.1 µM	< 0.1 µM	–	CC[C@@]12CC[C@](O)(COC)C[C@@H]1CCOc1cc3c(cnn3-c3ccnc(C)c3)cc12 (single isomer, unassigned) [Example 128]	–
< 0.1 µM	< 0.1 µM	–	O[C@]1(C(F)(F)F)CC[C@@]2(Cc3ccccn3)c3cn4cnc(-c5ccc(F)cc5)c4cc3CCC[C@@H]2C1 (racemic) [Example 166, rac-(3R,4aR,13bS)-9-(4-fluorophenyl)-13b-(pyridin-2-ylmethyl)-3-(trifluoromethyl)-2,3,4,4a,5,6,7,13b-octahydro-1H-benzo[3,4]cyclohepta[1,2-d]imidazo[1,5-a]pyridin-3-ol]	–
–	< 0.1 µM	1 to 10 µM	CC[C@@]12CC[C@](O)(COC)C[C@@H]1CCOc1cc3c(cnn3-c3ccnc(C(F)(F)F)c3)cc12 [Example 141]	–
> 10 µM	0.1 to 1 µM	–	CC[C@]12CC[C@@](O)(C(F)(F)F)C[C@@H]1CCCc1nc3c(cnn3-c3ccc(F)cc3)cc12 (single isomer, unassigned) [Example 153]	–
–	< 0.1 µM	< 0.1 µM	CC[C@@]12CC[C@](O)(COC)C[C@@H]1CCOc1cc3c(cnn3-c3ccc(F)cc3)cc12 [Example 131]	–
–	0.1 to 1 µM	1 to 10 µM	C[C@]1(O)CC[C@]2(Cc3ncccn3)c3cc4cnn(-c5ccc(F)cc5)c4nc3CCC[C@@H]2C1 [Example 162]	–
